In experiment [1] the target is T1, HSV-1 protease (assemblin) (Human herpesvirus 1, UniProt P10210).
T1 construct: encoding residues 1-288 of HSV-1 UL26 open reading frame and 32 heterologous amino acid; 6xHis (N); made in house
In words: Enzymatic assay for HSV-1 protease (assemblin) inhibition (FP assay / HPLC assay). It is filed as biochemical. The note with it: recombinant HSV-1 protease; 30 minute pre-incubation at room temperature; FP or HPLC format not stated; read-out: ENZYME IC50. As to the method:
Enzymatic Assay for HSV-1 Protease (Assemblin) Inhibition
Assemblin protease activity was determined using fluorescence polarization (FP). The fluorescent substrate was biotin-gamma-aminobutyrate -[…]-DTAF, based on the HSV-1release cleavage site. […] A change in molecular size of fluorescent substrate molecule, which was increased using avidin as a reaction stop reagent, allowed cleavage to be measured by FP. Potential protease inhibitors were dissolved in DMF and then diluted 5-fold in assay buffer. […] The enzyme was diluted to 21.3 ug/mL in assay buffer (1M NaCitrate, 50 mM NaPhosphate, pH 7.4, 100mM NaCl, 20% glycerol, 2 mM TECP) and 48.5 uL were added to each well. Following a 30 minute incubation at room temperature, 10 uL of 62.5 ug/mL substrate were added. After about 90 minute incubation at room temperature, 50 uL of 2 mg/mL avidin in phosphate buffer (50 mM Naphosphate, 100 mM NaCl, pH 7.4) were added to each well. The plates were read by a fluorescence polarization plate reader. Inhibitor potency was determined by comparison with incubations lacking inhibitor.
Assays were performed with the peptide substrate H-His-Thr-Tyr-Leu-Gln-Ala-Ser-Glu-Lys-Phe-Lys-Met-Trp-Gly-NH2 (Bachem). This substrate is a HSV-1-amide UL26 Open Reading Frame (242-255) and is derived from the release site of HSV-1 protease. HSV-1protease cleaves between alanine and serine. The product […] was quantified on HPLC using fluorescence detection of tryptophan residue. Enzyme was diluted to 4.3 ug/mL in assay buffer (1 M NaCitrate, 50 mM NaPhosphate, pH 7.3, 100 mM NaCl, 20% glycerol, 2 mM TCEP) and 48.5 uL were added to the tubes. Potential protease inhibitors were dissolved in DMF and then diluted 10-fold in assay buffer. 6.5 uL of inhibitor solution were added to each tube. Following a 30-minute incubation at room temperature, 10 uL of substrate in phosphate buffer (50 mM Naphosphate, 100 mM NaCl, pH 7.4) were added to all tubes. The final concentration of the substrate in the reaction mixtures was 10 uM. After a 15-minute incubation at room temperature, assays were quenched using 50 uL of 50% TCA. Inhibitor potency was determined by comparison with incubations lacking inhibitor, which under these conditions gave about 20% cleavage of substrate.
Recombinant HSV-1 Protease
HSV-1 protease was purified from baculovirus expressing a DNA construction encoding residues 1-288 of HSV-1 UL26 open reading frame and 32 heterologous amino acid. The construction also encoded six additional histidine residues at the amino terminus of the protease. These additional histidine residues provided an affinity ligand by which the protein was purified using Ni-NTA agarose gel (Qiagen). The purified protease was stored in stock solution (20 mM HEPES buffer, pH 8.5, containing 20% (v/v) glycerol). This stock was diluted with assay buffer to adequate concentration of enzymatic assay.
A specific substrate was synthesized based on the cleavage specificity of HSV-1 protease at the “release site” of the assembly protein (DiIanni, C. L., et al., J. Biol. Chem. 268, 2048, (1993)). The assembly protein release site has the sequence, HTYLQA*SEKFKMWG. The substrate used was biotin-gamma -aminobutyrate-HTYLQA*SERFRIK-DTAF which was prepared by standard peptide synthetic methods such as that described in Bodansky and Bodansky, “The Practice of Peptide Synthesis” (1984), and was stored as a stock solution at 2.5 mg/mL in DMF. This was diluted to 62.5 ug/mL with phosphate buffer (50 mM Naphosphate, […], pH 7.4) just before use.
The substrate was HSV-1-amide UL 26 Open Reading Frame (242-255), obtained from Bachem (Product No. M-2160).
An assay buffer (1 M NaCitrate, 50 mM NaPhosphate, pH 7.4, 100 mM NaCl, 20% glycerol, 2 mM TCEP) was used to dilute stock solutions of enzyme and inhibitors.

A further experiment has as its system HSV-1. In words: Antiviral assay: plaque reduction assay, HSV-1 in vero cells. It is filed as cell-based, HSV-1 (vero cells, African green monkey kidney cell). The note with it: Human alphaherpesvirus 1, Vero, 72 h, read-out: ANTIVIRUS EC50. From the text:
These complimentary assays tested the ability of a compound to inhibit the production of new virus and the toxicity of the compound to the host cells. It was important that both assays be performed simultaneously in order to compare the results directly since toxicity may indirectly reduce viral replication.
The antiviral assay was estimated by plaque reduction assay performed by following methods. 1×10^5 of vero cells (African green monkey kidney cell) in 48-well plates were over-night cultured and the medium of this culture was replaced with 200 μl of 2% FBS DMEM containing 2× the desired final cordon of test compounds or no compound as control. The cultures were added 50 μl of 2% FBS DMEM containing with about 50 plaque forming units of HSV-1and next 250 μl of 2% FBS DMEM containing 1% methylcellulose. These infected cultures were incubated at 37° C., 5% CO2 for 3 days until plaques was visible. The cells were fixed and stained simultaneously with 0.025% crystalviolet in 5% formalin solution and plaque were counted. The concentration of test compound which conferred 50% inhibition of plaque formation compared to no compound control was interpolated from the observed data and defined as IC50.
On the technique in general: Plaque reduction counts the foci of infection that form in a cell layer.

In experiment [2] the target is T2, Human leukocyte elastase (HLE) (Homo sapiens, UniProt P08246).
T2 construct: purchased CALBIOCHEM
T2 sequence (P08246 30-267): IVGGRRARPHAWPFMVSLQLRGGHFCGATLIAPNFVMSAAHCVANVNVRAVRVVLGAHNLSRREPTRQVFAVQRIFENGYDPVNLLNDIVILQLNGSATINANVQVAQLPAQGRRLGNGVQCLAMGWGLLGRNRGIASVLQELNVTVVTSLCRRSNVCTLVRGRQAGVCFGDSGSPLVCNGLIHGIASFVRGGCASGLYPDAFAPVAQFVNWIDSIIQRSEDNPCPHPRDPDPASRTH
Description: Human leukocyte elastase assay. Type of experiment: biochemical. The following applies: 50 μM compound; 30 minutes pre-incubation. As to the method: Human Leukocyte Elastase Assay
Human leukocyte elastase (HLE) (CALBIOCHEM) was dissolved in saline at 1 mg/ml and further diluted 1/10 in assay buffer (0.2 M Tris, pH 8.0) before use.
0.75 μl of test compound in DMF (or DMF alone), 50 μl of assay buffer and 50 μl of enzyme were added to 96 well plate, mixed and pre-incubated for 30 minutes at ambient temperature. Reaction was initiated by addition of 50 μl of 2.5 mM methoxysuccinyl-Ala-Ala-Pro-Val-p-nitroanilide (Sigma; 25 mM in DMSO diluted 1/10 in assay buffer before use). The increase in absorbance at 405 nm was monitored for 3 min. with BIO-RAD model 3550 microplate reader.

Experiment [3] concerns the target T3, Bovine pancreas α-chymotripsin (Bos taurus, UniProt P00766).
T3 construct: purchased Sigma type II; host or cells: bovine pancreas
Description: Chymotripsin assay. Type of experiment: biochemical. The following applies: 50 μM compound; 30 minutes pre-incubation; read-out: INHIBITION AT 50 μM CHYMOTRYPSIN (%). As for the experimental part: The chymotripsin assay was modified from the method of Delmar, et al. (Anal. Biochem. 99, 316-320 (1979)). Bovine pancreas α-chymotripsin(type II, Sigma) was dissolved in 0.001 N HCl at 1 mg/ml and further diluted 1/1000 in assay buffer (0.1 M Tris, pH 7.8 containing 0.1 M CaCl2) before use. 0.75 μl of test compound in DMF (or DMF alone), 50 μl of assay buffer and 50 μl of enzyme were added to 96 wells plates, mixed and pre-incubated for 30 minutes at ambient temperature. Reaction was initiated by addition of 50 μl of 0.2 mM N-succinyl-Ala-Ala-Pro-Phe-p-nitroanilide (Sigma; 2 mM in DMSO diluted 1/10 in assay buffer before use). The increase in absorbance at 405 nm was monitored for 3 minutes with BIO-RAD model 3550 microplate-reader.

One may read the IC50 as the concentration that gives 50% inhibition. As usually defined, the EC50 is the concentration needed to bring the measured effect to its halfway point. Broadly, the inhibition is the percentage by which the read-out fell short of the control.

T1 sequence (P10210 1-288): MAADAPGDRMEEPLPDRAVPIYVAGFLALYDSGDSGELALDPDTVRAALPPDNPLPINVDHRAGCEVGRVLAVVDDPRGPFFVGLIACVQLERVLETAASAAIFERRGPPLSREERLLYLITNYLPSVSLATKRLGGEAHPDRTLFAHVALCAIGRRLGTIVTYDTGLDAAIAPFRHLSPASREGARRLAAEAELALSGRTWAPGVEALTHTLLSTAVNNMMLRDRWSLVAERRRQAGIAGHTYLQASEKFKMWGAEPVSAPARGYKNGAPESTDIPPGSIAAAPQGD

For `Cc1c(NC(=O)OC(C)(C)C)ccc2nc(N3CCN(S(=O)(=O)c4ccccc4)CC3)oc(=O)c12` [Compound 15, 6-[[(1,1-Dimethylethoxy)carbonyl]amino]-5-methyl-2-[(4-benzenesulfonyl)-piperazinyl]-4H-3,1-benzoxazin-4-one], the IC50 in experiment [1] stood at 1700 nM. The concentration giving a half-maximal response (EC50) in the experiment on HSV-1 turned out to be 2800 nM. Also, the inhibition at 50 µM in experiment [2] and in experiment [3] was 0% throughout.
Regarding `C=CCN(C)c1nc2ccc(NC(=O)OC(C)(C)C)c(C)c2c(=O)o1` [Compound 7, 6-[[(1,1-Dimethylethoxy)carbonyl]amino]-5-methyl-2-[allyl(methyl)amino]-4H-3,1-benzoxazin-4-one], the IC50 in experiment [1] is 3400 nM. For the same compound, the EC50 in the experiment with HSV-1 was found to be 4100 nM. For the same compound, the inhibition at 50 µM is 0% in experiment [2] and 6.9% in experiment [3].
For `COc1ccc(CN(C)c2nc3ccc(NC(=O)OC(C)(C)C)c(C)c3c(=O)o2)cc1` [Compound 3, 6-[[(1,1-Dimethylethoxy)carbonyl]amino]-5-methyl-2-[methyl[(4-methoxyphenyl)methyl]amino]4H-3,1-benzoxazin-4-one], the IC50 in experiment [1] amounted to 600 nM. Also, the EC50 in the experiment with HSV-1 was determined as 160 nM. The inhibition at 50 µM in experiment [2] and in experiment [3] was 0% in each case.
For `Cc1c(NC(=O)OC(C)(C)C)ccc2nc(N(C)Cc3ccccc3)oc(=O)c12` [Compound 1, 6-[[(1,1-Dimethylethoxy)carbonyl]amino]-5-methyl-2-[methyl(phenylmethyl)amino]-4H-3,1-benzoxazin-4-one], in experiment [1], the half-maximal inhibitory concentration (IC50) amounted to 600 nM. Moreover, the EC50 in the experiment with HSV-1 is 1100 nM. In addition, the inhibition at 50 µM in experiment [2] is 32%; in experiment [3], 13%.
On to `Cc1c(NC(=O)c2c(F)cc(F)cc2F)ccc2nc(N(C(C)C)C(C)C)oc(=O)c12` [Compound 12, 6-[(2,4,6-Trifluorobenzoyl)amino]-5-methyl-2(diisopropylamino)-4H-3,1-benzoxazine-4-one], for which the IC50 in experiment [1] was determined as 6300 nM. For the same compound, the EC50 in the experiment with HSV-1 was 6800 nM. Further, the inhibition at 50 µM was 13.4% in experiment [2] and 22.4% in experiment [3].
Consider `Cc1cccc2nc(N(C)Cc3ccccn3)oc(=O)c12` [CC3, reference compound], for which, in experiment [1], the IC50 worked out at 3200 nM. Further, the EC50 in the experiment on HSV-1 was determined as 48900 nM. The inhibition at 50 µM in experiment [2] and in experiment [3] was 100% throughout.
With `Cc1c(NC(=O)OC(C)(C)C)ccc2nc(N(C)Cc3ccc(N(C)C)cc3)oc(=O)c12` [Compound 4, 6-[[(1,1-Dimethylethoxy)carbonyl]amino]-5-methyl-2-[[[4-(dimethylamino)phenyl]methyl]methylamino]-4H-3,1-benzoxazin-4-one], the half-inhibitory concentration (IC50) in experiment [1] came to 1300 nM. The EC50 with HSV-1 was found to be 50 nM. For the same compound, the inhibition at 50 µM in experiment [2] and in experiment [3] was 0% throughout.
Consider `Cc1c(NC(=O)OC(C)(C)C)ccc2nc(N3CCCC4CCCCC43)oc(=O)c12` (stereo not shown) [Compound 11, 6-[[(1,1-Dimethylethoxy)carbonyl]amino]-5-methyl-2-(decahydroquinolyl)-4H-3,1benzoxazin-4-one], for which the half-maximal inhibitory concentration (IC50) in experiment [1] came to 5500 nM. Also, the EC50 with HSV-1 came out at 2800 nM. The inhibition at 50 µM in experiment [2] and in experiment [3] was 0% in each case.
`Cc1c(NC(=O)c2ccccc2)ccc2nc(N(C)Cc3ccccc3)oc(=O)c12` [Compound 2, 6-(benzoylamino)-5-methyl-2-[methyl(phenylmethyl)amino]-4H-3,1-benzoxazin-4-one]: the IC50 in experiment [1] was determined as 700 nM. The EC50 in the experiment with HSV-1 amounted to 4600 nM. For the same compound, the results for the inhibition at 50 µM in experiment [2] and in experiment [3] were 26% and 7%, respectively.
The matching figures for `Cc1c(NC(=O)OC(C)(C)C)ccc2nc(N3CCOCC3)oc(=O)c12` [Compound 6, 6-[[(1,1-Dimethylethoxy)carbonyl]amino]-5-methyl-2-(4-morpholyl)-4H-3,1-benzoxazin-4-one]: 3700 nM, 2900 nM, 0% and 0%.

The record behind these values is US6806269B1, “2-Amino-benzoxazinones for the treatment of herpes simplex virus” (G. D. Searle & Cop, priority 1999, dated 2004).
